This note sets out measurements from patent publication US11173151B2, “Substituted triazole derivatives and uses thereof” (BAYER AKTIENGESELLSCHAFT, priority 2017, dated 2021).

In assay [1] the target is T1, human V2 receptor (Homo sapiens, UniProt P30518).
T1 construct: expressed in transfected cells; host or cells: CHO K1 (ATCC) expressing firefly luciferase under a CRE-responsive promoter
Kind of assay: Cellular in vitro assay for determining vasopressin receptor activity, V2 receptor cell line (CHO, CRE-luciferase). Conditions: CHO cell line transfected with human V2 receptor; [Arg8]-vasopressin at EC50 concentration, 3 hours; read-out: IC50 hV2. The assay is classed as cell-based.

Assay [2] addresses T2, human V1a receptor (Homo sapiens, UniProt P37288).
T2 construct: expressed in transfected cells; host or cells: CHO K1 (ATCC), also stably transfected with a modified aequorin
Kind of assay: Cellular in vitro assay for determining vasopressin receptor activity, V1a receptor cell line (CHO, aequorin luminescence). The assay is classed as cell-based. Conditions: for IC50: CHO cell line transfected with human V1a receptor, [Arg]-vasopressin at EC50 concentration, read-out: IC50 hV1a; for ratio IC50 hV2/hV1a: selectivity ratio IC50 hV2 / IC50 hV1a. The method, boiled down:
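Luminescence from reconstituted aequorin, reporting intracellular calcium release, was measured immediately after adding [Arg]-vasopressin at EC50 concentration to CHO K1 cells pretreated 10 minutes with graded compound concentrations. Inhibition gave IC50 values.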

T1 sequence (P30518 whole entry): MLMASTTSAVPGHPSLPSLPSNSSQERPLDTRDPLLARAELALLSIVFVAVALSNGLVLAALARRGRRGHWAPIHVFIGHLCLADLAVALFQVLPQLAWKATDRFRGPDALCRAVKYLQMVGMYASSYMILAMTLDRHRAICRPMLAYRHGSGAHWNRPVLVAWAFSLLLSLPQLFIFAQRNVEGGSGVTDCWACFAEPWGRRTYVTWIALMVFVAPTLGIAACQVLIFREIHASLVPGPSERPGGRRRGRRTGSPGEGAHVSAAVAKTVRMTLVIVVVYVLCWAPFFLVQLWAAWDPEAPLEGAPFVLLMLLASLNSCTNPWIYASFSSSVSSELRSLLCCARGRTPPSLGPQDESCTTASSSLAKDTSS
T2 sequence (P37288 whole entry): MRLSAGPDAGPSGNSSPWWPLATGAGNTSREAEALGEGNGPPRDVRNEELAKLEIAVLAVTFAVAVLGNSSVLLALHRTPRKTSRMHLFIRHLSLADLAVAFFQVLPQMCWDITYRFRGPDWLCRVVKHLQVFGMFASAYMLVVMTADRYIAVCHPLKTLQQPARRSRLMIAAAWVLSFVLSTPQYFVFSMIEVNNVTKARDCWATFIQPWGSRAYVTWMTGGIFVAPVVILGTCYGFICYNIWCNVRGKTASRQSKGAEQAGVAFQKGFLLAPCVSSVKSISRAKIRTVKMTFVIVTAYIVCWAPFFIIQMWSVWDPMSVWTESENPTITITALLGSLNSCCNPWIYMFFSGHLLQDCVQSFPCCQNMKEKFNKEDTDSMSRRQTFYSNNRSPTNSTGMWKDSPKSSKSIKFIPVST

Regarding `CN(CC(F)(F)F)C(=O)c1ccccc1-n1cnc(Cn2nc(-c3ccc(Cl)cc3)n(C[C@H](O)C(F)(F)F)c2=O)n1` [Example 272, 2-[3-({3-(4-Chlorophenyl)-5-oxo-4-[(2S)-3,3,3-trifluoro-2-hydroxypropyl]-4,5-dihydro-1H-1,2,4-triazol-1-yl}methyl)-1H-1,2,4-triazol-1-yl]-N-methyl-N-(2,2,2-trifluoroethyl)benzamide], the IC50 in assay [1] is 1750 nM; in assay [2], 5.85 nM. In assay [2], the “ratio IC50 hV2/hV1a” value was determined as 299.1.

Consider `CN1CC2CC1CN2C(=O)c1ccccc1-n1cnc(Cn2nc(-c3ccc(Cl)cc3)n(C[C@H](O)C(F)(F)F)c2=O)n1` (stereo partly drawn) [Example 273, 5-(4-Chlorophenyl)-2-[(1-{2-[(5-methyl-2,5-diazabicyclo[2.2.1]hept-2-yl)carbonyl]phenyl}-1H-1,2,4-triazol-3-yl)methyl]-4-[(2S)-3,3,3-trifluoro-2-hydroxypropyl]-2,4-dihydro-3H-1,2,4-triazol-3-one], for which the IC50 in assay [1] amounted to 6200 nM. Besides, in assay [2], the IC50 turned out to be 13 nM and the “ratio IC50 hV2/hV1a” value was 476.9.

In the case of `CN(C(=O)c1ccccc1-n1cnc(Cn2nc(-c3ccc(Cl)cc3)n(C[C@H](O)C(F)(F)F)c2=O)n1)C1CCCC1` [Example 276, 2-[3-({3-(4-Chlorophenyl)-5-oxo-4-[(2S)-3,3,3-trifluoro-2-hydroxypropyl]-4,5-dihydro-1H-1,2,4-triazol-1-yl}methyl)-1H-1,2,4-triazol-1-yl]-N-cyclopentyl-N-methylbenzamide], the IC50 in assay [1] amounted to 1150 nM; in assay [2] it was 2.7 nM. In addition, the “ratio IC50 hV2/hV1a” value in assay [2] is recorded as 425.9.

In the case of `CC1(C)CCN(C(=O)c2ccccc2-n2cnc(Cn3nc(-c4ccc(Cl)cc4)n(C[C@H](O)C(F)(F)F)c3=O)n2)CC1` [Example 277, 5-(4-Chlorophenyl)-2-[(1-{2-[(4,4-dimethylpiperidin-1-yl)carbonyl]phenyl}-1H-1,2,4-triazol-3-yl)methyl]-4-[(2S)-3,3,3-trifluoro-2-hydroxypropyl]-2,4-dihydro-3H-1,2,4-triazol-3-one], the 50% inhibitory concentration (IC50) is 1800 nM in assay [1] and 5.3 nM in assay [2]. Moreover, the “ratio IC50 hV2/hV1a” value in assay [2] was 339.6.

As to `O=C(c1ccccc1-n1cnc(Cn2nc(-c3ccc(Cl)cc3)n(C[C@H](O)C(F)(F)F)c2=O)n1)N1CCCCO1` [Example 278, 5-(4-Chlorophenyl)-2-({1-[2-(1,2-oxazinan-2-ylcarbonyl)phenyl]-1H-1,2,4-triazol-3-yl}methyl)-4-[(2S)-3,3,3-trifluoro-2-hydroxypropyl]-2,4-dihydro-3H-1,2,4-triazol-3-one], in assay [1], the IC50 came out at 405 nM. Besides, in assay [2], the 50% inhibitory concentration (IC50) was found to be 1.6 nM and the “ratio IC50 hV2/hV1a” value is listed as 253.1.

Turning to `O=C1CN(C(=O)c2ccccc2-n2cnc(Cn3nc(-c4ccc(Cl)cc4)n(C[C@H](O)C(F)(F)F)c3=O)n2)CN1` [Example 279, 5-(4-Chlorophenyl)-2-[(1-{2-[(4-oxoimidazolidin-1-yl)carbonyl]phenyl}-1H-1,2,4-triazol-3-yl)methyl]-4-[(2S)-3,3,3-trifluoro-2-hydroxypropyl]-2,4-dihydro-3H-1,2,4-triazol-3-one], the IC50 came to 2700 nM in assay [1] and 27.5 nM in assay [2]. Moreover, the “ratio IC50 hV2/hV1a” value in assay [2] is on record as 98.2.

On to `CC1(C)COCCN1C(=O)c1ccccc1-n1cnc(Cn2nc(-c3ccc(Cl)cc3)n(C[C@H](O)C(F)(F)F)c2=O)n1` [Example 281, 5-(4-Chlorophenyl)-2-[(1-{2-[(3,3-dimethylmorpholin-4-yl)carbonyl]phenyl}-1H-1,2,4-triazol-3-yl)methyl]-4-[(2S)-3,3,3-trifluoro-2-hydroxypropyl]-2,4-dihydro-3H-1,2,4-triazol-3-one], for which the IC50 in assay [1] was 2800 nM; in assay [2], 1.12 nM. Also, in assay [2], the “ratio IC50 hV2/hV1a” value was 2500.0.

For `O=C(c1ccccc1-n1cnc(Cn2nc(-c3ccc(Cl)cc3)n(C[C@H](O)C(F)(F)F)c2=O)n1)N1CCCOCC1` [Example 284, 5-(4-Chlorophenyl)-2-({1-[2-(1,4-oxazepan-4-ylcarbonyl)phenyl]-1H-1,2,4-triazol-3-yl}methyl)-4-[(2S)-3,3,3-trifluoro-2-hydroxypropyl]-2,4-dihydro-3H-1,2,4-triazol-3-one], in assay [1], the IC50 was found to be 970 nM. Moreover, in assay [2], the concentration for half-maximal inhibition (IC50) turned out to be 2 nM and the “ratio IC50 hV2/hV1a” value is given as 485.0.

For the compound `O=C(c1ccccc1-n1cnc(Cn2nc(-c3ccc(Cl)cc3)n(C[C@H](O)C(F)(F)F)c2=O)n1)N1CCCO1` [Example 285, 5-(4-Chlorophenyl)-2-({1-[2-(1,2-oxazolidin-2-ylcarbonyl)phenyl]-1H-1,2,4-triazol-3-yl}methyl)-4-[(2S)-3,3,3-trifluoro-2-hydroxypropyl]-2,4-dihydro-3H-1,2,4-triazol-3-one], in assay [1], the IC50 turned out to be 440 nM. For the same compound, in assay [2], the IC50 turned out to be 1.9 nM and the “ratio IC50 hV2/hV1a” value was determined as 231.6.

`CN(C)C1CN(C(=O)c2ccccc2-n2cnc(Cn3nc(-c4ccc(Cl)cc4)n(C[C@H](O)C(F)(F)F)c3=O)n2)C1` [Example 286, 5-(4-Chlorophenyl)-2-{[1-(2-{[3-(dimethylamino)azetidin-1-yl]carbonyl}phenyl)-1H-1,2,4-triazol-3-yl]methyl}-4-[(2S)-3,3,3-trifluoro-2-hydroxypropyl]-2,4-dihydro-3H-1,2,4-triazol-3-one]: the IC50 turned out to be 2500 nM in assay [1] and 14.5 nM in assay [2]. The “ratio IC50 hV2/hV1a” value in assay [2] is listed as 172.4.

For the compound `CC1(C)CN(C(=O)c2ccccc2-n2cnc(Cn3nc(-c4ccc(Cl)cc4)n(C[C@H](O)C(F)(F)F)c3=O)n2)CCO1` [Example 287, 5-(4-Chlorophenyl)-2-[(1-{2-[(2,2-dimethylmorpholin-4-yl)carbonyl]phenyl}-1H-1,2,4-triazol-3-yl)methyl]-4-[(2S)-3,3,3-trifluoro-2-hydroxypropyl]-2,4-dihydro-3H-1,2,4-triazol-3-one], the IC50 in assay [1] was determined as 2200 nM; in assay [2], 5.7 nM. Further, the “ratio IC50 hV2/hV1a” value in assay [2] was 386.0.

As to `CN1CCN(C(=O)c2ccccc2-n2cnc(Cn3nc(-c4ccc(Cl)cc4)n(C[C@H](O)C(F)(F)F)c3=O)n2)CC1=O` [Example 288, 4-{2-[3-({3-(4-Chlorophenyl)-5-oxo-4-[(2S)-3,3,3-trifluoro-2-hydroxypropyl]-4,5-dihydro-1H-1,2,4-triazol-1-yl}methyl)-1H-1,2,4-triazol-1-yl]benzoyl}-1-methylpiperazin-2-one], the IC50 in assay [1] was 4250 nM; in assay [2] it was 46 nM. For the same compound, the “ratio IC50 hV2/hV1a” value in assay [2] came to 92.4.

In the case of `CN(CC1CC1)C(=O)c1ccccc1-n1cnc(Cn2nc(-c3ccc(Cl)cc3)n(C[C@H](O)C(F)(F)F)c2=O)n1` [Example 289, 2-[3-({3-(4-Chlorophenyl)-5-oxo-4-[(2S)-3,3,3-trifluoro-2-hydroxypropyl]-4,5-dihydro-1H-1,2,4-triazol-1-yl}methyl)-1H-1,2,4-triazol-1-yl]-N-(cyclopropylmethyl)-N-methylbenzamide], the IC50 in assay [1] stood at 445 nM; in assay [2] it was 0.83 nM. Besides, in assay [2], the “ratio IC50 hV2/hV1a” value is listed as 536.1.

With `O=C(c1ccccc1-n1cnc(Cn2nc(-c3ccc(Cl)cc3)n(C[C@H](O)C(F)(F)F)c2=O)n1)N1CC(O)C1` [Example 290, 5-(4-Chlorophenyl)-2-[(1-{2-[(3-hydroxyazetidin-1-yl)carbonyl]phenyl}-1H-1,2,4-triazol-3-yl)methyl]-4-[(2S)-3,3,3-trifluoro-2-hydroxypropyl]-2,4-dihydro-3H-1,2,4-triazol-3-one], the IC50 in assay [1] is 845 nM; in assay [2] it was 9.1 nM. Moreover, the “ratio IC50 hV2/hV1a” value in assay [2] is recorded as 92.9.

Turning to `O=C(c1ccccc1-n1cnc(Cn2nc(-c3ccc(Cl)cc3)n(C[C@H](O)C(F)(F)F)c2=O)n1)N1CC[C@@H](O)C1` [Example 291, 5-(4-Chlorophenyl)-2-{[1-(2-{[(3R)-3-hydroxypyrrolidin-1-yl]carbonyl}phenyl)-1H-1,2,4-triazol-3-yl]methyl}-4-[(2S)-3,3,3-trifluoro-2-hydroxypropyl]-2,4-dihydro-3H-1,2,4-triazol-3-one], the IC50 in assay [1] stood at 1150 nM. Besides, in assay [2], the IC50 is 6.6 nM and the “ratio IC50 hV2/hV1a” value turned out to be 174.2.

`CC1C=CC(C)N1C(=O)c1ccccc1-n1cnc(Cn2nc(-c3ccc(Cl)cc3)n(C[C@H](O)C(F)(F)F)c2=O)n1` (stereo partly drawn) [Example 293, 5-(4-Chlorophenyl)-2-[(1-{2-[(2,5-dimethyl-2,5-dihydro-1H-pyrrol-1-yl)carbonyl]phenyl}-1H-1,2,4-triazol-3-yl)methyl]-4-[(2S)-3,3,3-trifluoro-2-hydroxypropyl]-2,4-dihydro-3H-1,2,4-triazol-3-one]: the IC50 in assay [1] was found to be 840 nM; in assay [2] it was 4.7 nM. In addition, the “ratio IC50 hV2/hV1a” value in assay [2] was 178.7.

Take `C=CCN(C)C(=O)c1ccccc1-n1cnc(Cn2nc(-c3ccc(Cl)cc3)n(C[C@H](O)C(F)(F)F)c2=O)n1` [Example 294, 2-[3-({3-(4-Chlorophenyl)-5-oxo-4-[(2S)-3,3,3-trifluoro-2-hydroxypropyl]-4,5-dihydro-1H-1,2,4-triazol-1-yl}methyl)-1H-1,2,4-triazol-1-yl]-N-methyl-N-(prop-2-en-1-yl)benzamide]: the IC50 in assay [1] came out at 1540 nM. Further, in assay [2], the IC50 is 2.1 nM and the “ratio IC50 hV2/hV1a” value was determined as 735.7.

Turning to `CCN(C)C(=O)c1ccccc1-n1cnc(Cn2nc(-c3ccc(Cl)cc3)n(C[C@H](O)C(F)(F)F)c2=O)n1` [Example 295, 2-[3-({3-(4-Chlorophenyl)-5-oxo-4-[(2S)-3,3,3-trifluoro-2-hydroxypropyl]-4,5-dihydro-1H-1,2,4-triazol-1-yl}methyl)-1H-1,2,4-triazol-1-yl]-N-ethyl-N-methylbenzamide], the concentration for half-maximal inhibition (IC50) in assay [1] came to 77 nM. Further, in assay [2], the 50% inhibitory concentration (IC50) was 2.5 nM and the “ratio IC50 hV2/hV1a” value is recorded as 30.8.
